Patent US9403800B2, “Compounds for inhibition of cancer cell proliferation” (ChemRegen, Inc., priority 2012, dated 2016)

Legend:
[1] = system: PC-3; test: stimulation of apoptosis, Caspase 3/7 cleavage (Caspase-Glo Kit), PC-3; type: cell-based; details: Homo sapiens, PC-3, 24 hrs
Procedure: Given Compounds 1, 4, and 15 inhibited cancer cell proliferation, we tested whether compounds 1, 4, and 15 stimulated cancer cell apoptosis. The MDA-MB-231, MCF-7, PC-3, and HCT-116 cells were treated with the indicated compounds for 24 hrs. over a dose range from 1.6 to 5000 nM. Apoptosis was then measured by monitoring Caspase 3/7 cleavage (Caspase-Glo Kit).

[2] = system: Endogenous Target Genes for Wnt & Apoptotic Pathways in MCF-7; test: qPCR of Wnt and pro-apoptotic target genes, MCF-7; type: cell-based; design: MYC expression, % change relative to DMSO control / BAX expression, % change relative to DMSO control / BAK expression, % change relative to DMSO control / BBC3 expression, % change relative to DMSO control / FOS expression, % change relative to DMSO control: concentration or dose not given beside the values; details: MCF-7, 24 hrs, qPCR normalized to 36B4
Procedure: (§1) Given the effects of Compounds 1, 4, and 15 on biological functions (e.g., proliferation, viability, and apoptosis) in several cancer cell lines, we tested the effects of compounds 1, 4, and 15 on regulation of endogenous Wnt and pro-apoptotic gene expression. MDA-MB-231, MCF-7, PC-3, and HCT-116 cancerncells were treated with the indicated compounds for 24 hrs. over a dose range from 1.6 to 5000 nM. Gene expression was measured using qPCR, normalized to the housekeeping gene, 36B4, and calculated % change relative to DMSO control. NC, no change.

[3] = system: normal human fibroblast cells; test: effect on normal human fibroblast cells; type: cell-based
[4] = system: LNCap; test: viability (Alamar Blue), LNCap; type: cell-based; details: Homo sapiens, 24 hrs
[5] = system: SW480 colorectal cancer model cell line; test: SW480 cell proliferation and cell cycle (InCell 1000); type: cell-based, human
Source text: Previous studies have shown that the Wnt signaling pathway drives cellular proliferation of a number of cancers through up-regulation of genes for several proteins crucial for cell division including Cyclin D1, c-Myc, etc. and treatment of cancer cells with 1 or analogs decreases cellular proliferation. Accordingly, we examined the effect of 1 and analogs on cell proliferation of human cancer cell lines. […] The results were confirmed by studying the effects of 1 on SW480 human colon cell cycle determined by cell images captured by InCell 1000.

[6] = system: PC-3 prostate tumors; test: PC-3 prostate tumor xenograft; type: in vivo, mice; details: for growth of PC-3 prostate tumors: i.p. 30 mg/kg daily for 19 days
Procedure: Based on the inhibition of cancer cell proliferation by the disclosed compounds the disclosed compounds likely will inhibit cancer cell migration. […] Following establishment of HCT-116 tumors, daily doses of either Compound 15 or vehicle were administered by i.p. injection at 20 mg/kg for 28 days. […] The weight of the excised HCT-116 tumors was 77% lower for the Compound 15-treated mice relative to the vehicle control on Day 28 of the experiment. […] Following establishment of PC-3 tumors, daily doses of either Compounds 1, 15 or vehicle were administered by i.p. injection at 30 mg/kg for 19 days. […] The weight of the excised PC-3 tumors was 66% for compound 15-treated mice compared to vehicle-treated controls on Day 19 of the experiment.

[7] = system: HEK-293T cells; test: cytotoxicity by leakage of G6PDH, HEK-293T; type: cell-based
[8] = chemical stability by HPLC; type: physicochemical; details: determined by HPLC
Source text: As observed from the data presented in Table 1, both free bases and salts gave significant Wnt inhibition potency. On the basis of the lipophilic character of many of the analogs, it is likely interaction site on the molecular target has a lipophilic character although polar interactions are apparent. To increase solubility, were possible, hydrochloride salts of the sulfonamides were synthesized. To afford appropriate bioavailability, sulfonamides were synthesized with chemical and metabolic stability in mind.

[9] = system: HEK-293T cells; test: Alamar Blue resazurin-based cell viability assay, HEK-293T; details: Homo sapiens, read-out: decrease of cell viability, EC50
[10] = system: Endogenous Target Genes for Wnt & Apoptotic Pathways in MDA-MB 231; test: qPCR of Wnt and pro-apoptotic target genes, MDA-MB 231; type: cell-based; design: concentration or dose not given beside the values; details: MDA-MB 231, 24 hrs, qPCR normalized to 36B4
Procedure: as §1

[11] = cytotoxicity (Vibrant Cytotox assay), MDA-MB-231; type: cell-based; details: human, MDA-MB-231 cells; MDA-MB-231, 24 hrs
Procedure: (§2) Given Compounds 1, 4, and 15 inhibited cancer cell proliferation and stimulated apoptosis, we tested the effects compounds 1, 4, and 15 on cancer cell viability and cytotoxicity. The MDA-MB-231, MCF-7, PC-3, and HCT-116 cells were treated with the indicated compounds for 24 hrs. over a dose range from 1.6 to 5000 nM. Viability and cytotoxicity were then measured by the Alamar Blue and Vibrant Cytotox assays respectively.

[12] = system: HCT-116; test: viability (Alamar Blue), HCT-116; type: cell-based; details: Homo sapiens; HCT-116, 24 hrs
Procedure: as §2

[13] = system: TGF-signaling pathway; test: TGF-signaling pathway transcriptional activity (selectivity); type: cell-based
[14] = in vivo toxicity assessment in rats; details: 30 mg/kg p.o. daily for one week
Procedure: Compounds of structure I were designed to be chemically and metabolically stable and non-toxic. For example, the alpha methyl group of the quinoxalin ring system protects the sulfonamide from rapid metabolism or hydrolysis. […] We tested Compounds 4 and 15 for toxicity in rats. In one study, we dosed rats with Compound 4 (p.o) daily for one week with 30 mg/kg. In another study, we dosed rats daily for one week with 30 mg/kg Compound 15 by p.o. administration. We monitored the weights of the rats daily over the course of both studies. […] Blood was also obtained from the animals at termination of the experiment.

Row | SMILES | IC50 [1] | BAK expression, % change relative to DMSO control [2] | BBC3 expression, % change relative to DMSO control [2] | CCDN1 expression, % change relative to DMSO control [2] | FOS expression, % change relative to DMSO control [2] | JUN expression, % change relative to DMSO control [2] | MYC expression, % change relative to DMSO control [2] | IC50 [4] | growth of PC-3 prostate tumors [6] | BAK expression, % change relative to DMSO control [10] | BAX expression, % change relative to DMSO control [10] | BBC3 expression, % change relative to DMSO control [10] | CCDN1 expression, % change relative to DMSO control [10] | JUN expression, % change relative to DMSO control [10] | MYC expression, % change relative to DMSO control [10] | IC50 at 24 h [11] | IC50 [12] | BAX expression, % change relative to DMSO control [2] | FOS expression, % change relative to DMSO control [10] | food or water intake or behavior [14] | other results
1 | O=C1CCCN1c1ccc(S(=O)(=O)N2CCCc3ccccc32)cc1 [Compound 1, 1-(4-(3,4-dihydroquinolin-1(2H)-ylsulfonyl)phenyl)pyrrolidin-2-one] | 49 nM | −10% | −55% | +50% | −70% | +125% | −25% | 90 nM | inhibited the growth of PC-3 prostate tumors | −42% | −70% | −78% | −72% | −50% | −70% | > 5000 nM | 30 nM | – | – | – | effect on normal human fibroblast cells [3]: did not have any affect on normal human fibroblast cells; Ki67 protein levels ([5]; SW480 cells): elevated; cell cycle distribution ([5]; SW480 cells, InCell 1000 images): significantly more cells in G2 and less in G1/S phases; cancer cell proliferation (in words) ([5]; SW480 colon cancer cell line): significantly inhibited cancer cell proliferation; cytotoxicity (leakage of G6PDH) [7]: not cytotoxic; half-life [8]: 120 h; EC50 [9]: ~25 nM; transcriptional activity of the TGF-signaling pathway [13]: did not alter the transcriptional activity
2 | CC1CCc2ccccc2N1S(=O)(=O)c1ccc(N2CCCC2=O)cc1 (centres unmarked) [Compound 4, 1-(4-(2-methyl-3,4-dihydroquinolin-1(2H)-ylsulfonyl)phenyl)pyrrolidin-2-one] | 117 nM | +25% | −40% | +100% | −85% | +50% | −5% | 87 nM | – | −50% | −65% | −80% | −25% | −45% | −55% | > 5000 nM | 52 nM | +75% | +100% | no differences in food or water intake or behavior | overall toxicity in healthy rats [14]: nontoxic; weights of the rats compared to controls [14]: no differences in the weights of the rats were observed
3 | CN1CCN(S(=O)(=O)c2ccc(N3CCCC3=O)cc2)c2ccccc21 [Compound 15, 1-(4-(4-methyl-3,4-dihydroquinoxalin-1(2H)-ylsulfonyl)phenyl)pyrrolidin-2-one] | 32 nM | +45% | +75% | +50% | −75% | +150% | −50% | 124 nM | inhibited the growth of PC-3 prostate tumors | −20% | −62% | −65% | −22% | −38% | −50% | > 5000 nM | 9 nM | −25% | −10% | no differences in food or water intake or behavior | weight of the excised PC-3 tumors compared to vehicle-treated controls ([6]; i.p. 30 mg/kg daily, Day 19): 66%; overall toxicity in healthy rats [14]: nontoxic; toxicity in tissue (liver, heart, kidney, lung and intestine) [14]: did not show any indication of toxicity; weights of the rats compared to controls [14]: no differences in the weights of the rats were observed; serum clinical chemistry values compared with vehicle-treated animals ([14]; at termination): did not alter the clinical chemistry values
